Assays:
Assay type in all cases: in vivo, mouse
[1] = system: wild-type and α1G −/− mice; experiment: Thalamic field activity (depth electrodes) and epidural EEG after (RS)-baclofen in freely moving animals; conditions: 30 mg/kg i.p.
Procedure: To confirm the result of Example 6, the present inventors examined the field activity of thalamic nuclei using depth electrodes in freely moving animals. […] To examine the thalamic SWDs, the present inventors injected (RS)-baclofen i.p. at 30 mg/kg instead of the dose, i.e., 20 mg/kg, used previously (FIG. 4B). […] The administration of baclofen synchronized all thalamic activities into 2-3 Hz SWDs in wild-type nice (FIG. 5B, left). In the α1G −/− thalamus, however, baclofen reduced the amplitudes of peaks in a wide range of frequency, as if it caused general desynchronization (FIG. 5B, right).

[2] = system: wild-type and α1G −/− mice; experiment: SWD generation in epidural EEG after systemic injection of absence seizure-inducing agents; conditions: for SWD generation in epidural EEG: α1G −/− mice
Text: To examine the role of α1G in the generation of SWDs in vivo, the present inventors systematically [“systemic” and “systematic” are different] injected into α1G −/− mice and wild-type mice either γ-butyrolactone, a prodrug of γ-hydroxybutyric acid, or (RS)-baclofen. Absence seizures induced by these drugs are characterized by bilaterally synchronous SWDs and have been associated with behavioral arrest, facial myoclonus, and vibrissal twitching.

[3] = system: wild-type and α1G −/− mice; experiment: Convulsive seizures induced by 4-AP (EEG and behavioral seizure score)
Text: The present inventors tested whether the seizure resistance of α1G −/− mice was specific to absence seizures. […] The EEG pattern of these ictal discharges was quite different from that observed in the spike-and-wave seizures induced by baclofen or bicuculline.
The below scores grade the seizures according to behavioral seizures as monitored by video.
1: mild tremors of the head
2: whole body tremors with loss of postural control
3: erratic running, erratic jumping, or tonic-clonic movement of the limbs
4: tonic extension of the whole body or death

[4] = system: wild-type and α1G −/− mice; experiment: EEG recording of cortex and thalamus after injection of BMB; conditions: 10 mg/kg into the peritoneal cavity
Procedure: Systematic administration or focal injection of bicuculline into the cortex has been known to evoke SWDs mainly originating from the territory of the cortex (Steriade and Contreras, Journal of Neurophysiology, 1998, 80, 1439-55). To determine the role of α1G in the cortex-dependent mechanism of SWDs, the present inventors examined the EEG pattern after injection of BMB into the peritoneal cavity of mice at 10 mg/kg.
However, because of the complexity of the bicuculline-induced seizures, the present inventors could not conclude whether there is any quantitative difference in the amplitude of the SWDs or in the time lag of SWD occurrences for the two types of mice (i.e., wild-type and α1G −/−). […] Thus, it seems that the BMB-induced SWDs observed here are also associated with other types of generalized seizures.

**Q.** `NCC(CC(=O)O)c1ccc(Cl)cc1` (racemic) [(RS)-baclofen] was tested. Which “frequency of SWDs in epidural EEG” value ([1]; duration of SWDs significantly increased versus 20 mg/kg) did it give?
**A.** 2-3 Hz

**Q.** What about the “frequency of SWDs in thalamus (field recording)” value ([1]; wild-type thalamus) of the same molecule?
**A.** 2-3 Hz

**Q.** What about the “SWD generation in thalamus (field recording)” value ([1]; α1G −/− thalamus) of the same molecule?
**A.** no such synchronized activities were observed

**Q.** What about the “frequency of SWDs in epidural EEG” value ([2]; wild-type mice, 20 mg/kg) of the same molecule?
**A.** 3-4 Hz

**Q.** What about the “SWD generation in epidural EEG” value ([2]; 20 mg/kg) of the same molecule?
**A.** marked resistance to the generation of SWDs

**Q.** Which “mice that developed seizures” value ([3]; 2 mg/kg into the peritoneal cavity, C57BL/6J and 129/sv) does the source give for `Nc1ccncc1` [4-AP, 4-aminopyridine] here?
**A.** 25%

**Q.** What about the “mice that developed tonic-clonic seizures” value ([3]; 10 mg/kg into the peritoneal cavity, C57BL/6J and 129/sv) of the same molecule?
**A.** All of the mice

**Q.** And the “time to vigorous ictal discharges after injection” value ([3]; 10 mg/kg, both wild-type and α1G −/− mice)?
**A.** 30 to 40 min

**Q.** And the “severity of induced seizures graded by behavioral symptoms, wild-type versus α1G −/− mice” value ([3]; seizure score 0-4, 2 mg/kg and 10 mg/kg)?
**A.** no quantitative difference

**Q.** Which “time to initiation of seizure spikes in the cortex” value [4] does the source give for `C[N+]1(C)CCc2cc3c(cc2[C@H]1[C@@H]1OC(=O)c2c1ccc1c2OCO1)OCO3.[Br-]` [BMB, bicucullinemethobromide] here?
**A.** within five minutes

**Q.** What about the “SWD generation in EEG” value ([4]; α1G −/− mice) of the same molecule?
**A.** exhibited SWD-like activities

**Q.** `O=C1CCCO1` [γ-butyrolactone] was tested. Which “frequency of paroxysmal SWDs in epidural EEG” value ([2]; wild-type mice, 70 mg/kg) did it give?
**A.** 3-5 Hz

**Q.** And the “SWD generation in epidural EEG” value ([2]; 70 mg/kg)?
**A.** did not display typical SWD patterns

— patent US7626076B2, “Transgenic mouse whose genome comprises a homozygous disruption of its α1G gene, a method of preparing the same and use thereof” (Orient Bio., Inc., priority 2002, dated 2009)
